Test results from US4268630A, “Microbiological production of ketones from C3 -C6 alkanes” (priority 1979, dated 1981).

Tests used:
[1] = tested on: Torulopsis sp. Strain A1 (NRRL Y-11,419); experiment: Oxidation of sec-alcohols to ketones by cell suspensions of yeasts; assay type: cell-based
[2] = tested on: Methanomonas methylovora ATCC 21852; experiment: Oxidation of sec-alcohols to ketones by resting cell suspension; assay type: cell-based
Protocol: (§1) The pH of the nutrient medium was adjusted to 7.0 by the addition of acid or base and 50 ml. samples of the nutrient medium were charged into a plurality of 300 ml. shaker flasks. The shaker flasks were inoculated with an inoculating loop of cells from an agar plate containing homogeneous colonies of the microorganisms on the plate (the purity of the isolates was confirmed by microscopic examination). The isolates had been maintained on methanol (0.4% V/V) agar plates or on agar plates under an atmosphere of methane and air having a 1:1 V/V gas ratio which had been transferred every two weeks. For growth on methanol, the medium was supplemented with 0.4% methanol. For growth on methane, the gaseous phase of the inoculated flasks was replaced with a gas mixture comprised on methane and air having a ratio of 1:1 on a V/V basis. The inoculated flasks were sealed air-tight and were incubated on a rotary shaker of orbital radius 2.5 cm. at 250 rpm and at 30° C. for two days until turbidity in the medium had developed. The cells were harvested by centrifugation at 10,000×g. at 4° C. for 30 minutes. The cell pellet was washed twice with a 0.05 M phosphate buffer at a pH of 7.0 (containing 0.02 M MgCl2). The washed cells were then suspended in a 0.05 M phosphate buffer at pH 7.0.
(§2) A 0.5 ml. sample of each washed cell suspension (2 mg. cells) was put into 10 ml. vials at 4° C. which were sealed with a rubber cap. The gaseous phase of the vials was removed with vacuum and then was replaced with a gas mixture of the substrate reactant (i.e., alkane or secondary alcohol) and oxygen at a 1:1 V/V ratio. (In the case of a liquid substrate, i.e., secondary alcohol, 10 μl of the substrate was put in the 10 ml. vials). […] Samples of product (1-3 μl) were withdrawn periodically with a microsyringe and the products were analyzed by gas chromatography (ionization flame detector column).
(§3) The procedure in Example 1 was repeated except that a plurality of methanol-utilizing methylotrophic microorganisms were each aerobically grown in a methanol-containing nutrient medium instead of a methane-containing medium. The nutrients in the medium were the same as indicated in Example 1 except that 0.4% V/V methanol was used as the alcohol dehydrogenase inducer and as the major carbon and energy source for growth. The cells were harvested and washed as described in Example 1. The resting microbial cells of the induced methanol-grown methanol-utilizing methylotrophic microorganisms were then contacted with C3 -C6 secondary alcohols in a buffered solution by the procedure of Example 1.
(§4) The procedure in Example 1 was repeated except that the methylotrophic microorganisms were each aerobically grown in an alcohol dehydrogenase-inducing growth medium containing methylamine or methyl formate as the alcohol dehydrogenase enzyme inducer and growth substrate instead of methane. The nutrients in the medium were the same as indicated in Example 1 except that 0.4% V/V of the alcohol dehydrogenase-inducer growth substrate was used as the major carbon and energy source. The cells were harvested and washed as described in Example 1. The resting microbial cells were then contacted with C3 -C6 secondary alcohols in a buffered solution by the conversion procedure of Example 1.

[3] = tested on: Pseudomonas sp. ATCC 21438; experiment: as above; assay type: cell-based
Protocol: as §1, §2, §3, §4

[4] = tested on: cell-free soluble extract of Methylococcus capsulatus CRL M1 (NRRL B-11,219); experiment: Oxidation of secondary alcohols by cell-free soluble extract (NAD added); assay type: biochemical; conditions: soluble crude extract, grown on methanol
Protocol: (§5) To prepare the cell-free secondary alcohol dehydrogenase (SADH) system, the washed cells were disrupted with a Wave Energy Ultrasonic Oscillator, Model W201 (Wave Energy System, Inc., Newtown, Pa.) and centrifuged at 20,000× g. for 30 minutes. […] The enzyme activity was measured with a fluorescence spectrophotometer (Perkin Elmer, Model MPF 44A) by following the formation of reduced NAD (EX 340 nm, Em 460 nm). The formation of reduced NAD was also followed with an absorption spectrophotometer at 340 nm. The assay system (3 ml.) contained: potassium phosphate buffer pH 7.0; 150 μmol.; NAD 1 μmol.; a given amount of enzyme preparation; and secondary alcohol 10 μmol. The reaction was started by the addition of substrate. One unit of enzyme activity represents the reduction of one μmole NAD per minute. Protein concentrations were determined by the Lowry method (J. Biol. Chem., 193: 255-275 (1951)).
(§6) The experimental procedure for the tests reported in Table VIII were as follows: 1 mg protein of crude extract was added into a 0.5 ml. 0.05 M phosphate buffer (pH 7.0) in a 10-ml. vial. […] The reaction mixture was incubated at 30° C. on a water bath. A 3 μl sample was removed with a syringe at 15 min. of incubation and was assayed with g.l.c. Catalytic activity was also assayed by fluorescence spectrophotometry.

[5] = tested on: cell-free soluble extract of Methylobacterium organophilum CRL 26 (NRRL B-11,222); experiment: as above; assay type: biochemical; conditions: soluble crude extract, grown on methanol
Protocol: as §5, §6

[6] = tested on: cell-free soluble extract of Methylosinus trichosporium OB3b (NRRL B-11,196); experiment: as above; assay type: biochemical; conditions: soluble crude extract, grown on methanol
Protocol: as §5, §6

[7] = tested on: cell extracts of Torulopsis sp. strain A1 NRRL Y-11,419; experiment: NAD+-dependent oxidation of secondary alcohols by cell extracts of yeasts; assay type: biochemical; conditions: cell extracts, grown on methanol, NAD+; gas chromatography
[8] = tested on: Candida utilis ATCC 26387; experiment: Oxidation of sec-alcohols to ketones by cell suspensions of yeasts; assay type: cell-based

| Structure (SMILES) | Conversion Rate, sec-alcohol to ketone ([1]; growth substrate Ethanol) | Conversion Rate, sec-alcohol to ketone ([1]; growth substrate Methanol) | Conversion Rate, sec-alcohol to ketone ([1]; growth substrate Methylamine) | Conversion Rate, sec-alcohol to ketone ([1]; growth substrate Methylformate) | Conversion Rate, sec-alcohol to ketone ([1]; growth substrate Propylamine) | Conversion Rates, sec-alcohol to methyl ketone ([2]; methanol-grown, obligate) [μmoles/hr/mg protein] | Conversion Rates, sec-alcohol to methyl ketone ([2]; methyl formate-grown) [μmoles/hr/mg protein] | Conversion Rates, sec-alcohol to methyl ketone ([2]; methylamine-grown) [μmoles/hr/mg protein] | Conversion Rates, sec-alcohol to methyl ketone ([3]; methanol-grown, facultative) [μmoles/hr/mg protein] | Conversion Rates, sec-alcohol to methyl ketone ([3]; methyl formate-grown) [μmoles/hr/mg protein] | Conversion Rates, sec-alcohol to methyl ketone ([3]; methylamine-grown) [μmoles/hr/mg protein] | Oxidation Rate, sec-alcohol to methyl ketone [4] [nmole/min/mg protein] | Oxidation Rate, sec-alcohol to methyl ketone [5] [nmole/min/mg protein] | Oxidation Rate, sec-alcohol to methyl ketone [6] [nmole/min/mg protein] | Conversion Rate, secondary alcohol to methylketone [7] [μmoles/hr/mg Protein] | Conversion Rate, sec-alcohol to ketone ([8]; growth substrate Ethanol) | Conversion Rate, sec-alcohol to ketone ([8]; growth substrate Methanol) | Conversion Rate, sec-alcohol to ketone ([8]; growth substrate Methylamine) | Conversion Rate, sec-alcohol to ketone ([8]; growth substrate Methylformate) | Conversion Rate, sec-alcohol to ketone ([8]; growth substrate Propylamine) |
| --- | --- | --- | --- | --- | --- | --- | --- | --- | --- | --- | --- | --- | --- | --- | --- | --- | --- | --- | --- | --- |
| CCCCC(C)O (stereo not shown) [2-Hexanol, 2-hexanol] | 0.20 μmoles/hr/mg of protein | 0.21 μmoles/hr/mg of protein | 0.12 μmoles/hr/mg of protein | 0.25 μmoles/hr/mg of protein | 0.10 μmoles/hr/mg of protein | 1.0 | 0.60 | 0.09 | 0.7 | 0.80 | 0.07 | 0 | 0 | 0 | 0.21 | 0.72 μmoles/hr/mg of protein | 0.8 μmoles/hr/mg of protein | 0.61 μmoles/hr/mg of protein | 0.75 μmoles/hr/mg of protein | 0.52 μmoles/hr/mg of protein |
| CCCC(C)O (stereo not shown) [2-Pentanol, 2-pentanol] | 1.2 μmoles/hr/mg of protein | 1.0 μmoles/hr/mg of protein | 0.9 μmoles/hr/mg of protein | 1.1 μmoles/hr/mg of protein | 0.62 μmoles/hr/mg of protein | 2.1 | 1.5 | 1.0 | 2.7 | 2.0 | 0.82 | 0.1 | 0.1 | 0.1 | 1.0 | 1.0 μmoles/hr/mg of protein | 1.5 μmoles/hr/mg of protein | 1.2 μmoles/hr/mg of protein | 1.3 μmoles/hr/mg of protein | 0.9 μmoles/hr/mg of protein |
